Data set [1] concerns SARS-CoV-2 (USA_WA1/2020). The data set is described as follows: microbe, parasite or virus in culture. The format is cell-based.
Data set [2] is described as follows: in vitro. As to conditions: African green monkey.
Where [3] appears, read: Severe acute respiratory syndrome coronavirus 2, Vero C1008, SARS-CoV-2 CPE assay, Vero E6 cells, confirmed anti-SARS-CoV-2 compounds, read-out: CPE EC50.
The mark [4] stands for this setting: Severe acute respiratory syndrome coronavirus 2, Vero C1008, SARS-CoV-2 CPE assay, Vero E6 cells, efficacy, read-out: CPE % Efficacy.
Setting [5] is: Severe acute respiratory syndrome coronavirus 2, Vero C1008, […], DMSO 0%, no-virus control 100%, hit confirmation, read-out: CPE % efficacy.

Read-outs that look alike come from different tables or passages of the source. *1 amine or outer side, *2 acyl side, *3 side chain or, on linkers, in order; H or OH if unused. Where a SMILES comes first, the peptide text is derived from it. Bridges are numbered along the chain shown (N, C = ends). [ ]: non-standard residue; d: D form. The star is where a group is joined. pTerphenylCO(4''-OnC5H11) = CCCCCOc1ccc(-c2ccc(-c3ccc(C(=O)*)cc3)cc2)cc1; Orn(4R-OH,5R-OH) = O=C([C@H](C[C@@H](O)[C@@H](O)N[*:3])N[*:1])[*:2]; hTyr(3S-OH,4S-OH) = N[C@H](C(=O)O)[C@H](O)[C@@H](O)c1ccc(O)cc1; Pro(3S-OH,4S-Me) = C[C@H]1CN[C@H](C(=O)O)[C@H]1O; Hyp = O=C(O)[C@@H]1C[C@@H](O)CN1 Some results are limits rather than exact numbers.

Consider `CCCc1cc(C)[nH]c(=O)c1CNC(=O)c1cc(-c2ccnc(N3CCN(C)CC3)c2)cc2c1cnn2C(C)C` [GSK-343], for which the Emax in data set [1] (Severe acute respiratory syndrome coronavirus 2, Vero C1008, SARS-CoV-2 CPE assay, Vero E6 cells, read-out: CPE % Efficacy) worked out at 51.7%. The half-maximal effective concentration (EC50) in data set [1] (Severe acute respiratory syndrome coronavirus 2, Vero C1008, SARS-CoV-2 CPE assay, Vero E6 cells, read-out: CPE EC50) was found to be 14.1 µM. Besides, in data set [2], the CC50 was determined as 10 µM and the cytotoxicity stood at 16.6%.
On to `c1ccc(-c2ccc(C(c3ccccc3)n3ccnc3)cc2)cc1` (stereo not drawn) [Bifonazole], for which the concentration for a half-maximal effect (EC50) in data set [1] (setting [3]) turned out to be 10 µM. In addition, the Emax in data set [1] (setting [4]) stood at 36.4%. In data set [2], this compound gave a cytotoxicity of 24.5%.
For `NC(=O)c1cccc2cn(-c3ccc([C@@H]4CCCNC4)cc3)nc12` [Niraparib], in data set [1] (Severe acute respiratory syndrome coronavirus 2, Vero C1008, read-out: CPE % Efficacy), the Emax came out at 134%. Also, in data set [1] (Severe acute respiratory syndrome coronavirus 2, Vero C1008, read-out: CPE EC50), the 50% effective concentration (EC50) came out at 11.2 µM. In addition, in data set [2], the CC50 turned out to be 15.8 µM and the cytotoxicity was found to be 24.3%.
For `Cc1cc(O[C@@H](CCC(F)(F)F)c2ccc(C(=O)NCCC(=O)O)cc2)cc(C)c1-c1ccc(C(C)(C)C)cc1` [Adomeglivant], in data set [1] (setting [3]), the 50% effective concentration (EC50) was 3.16 µM. Besides, in data set [1] (setting [4]), the Emax stood at 49.2%. In data set [2], this compound gave a cytotoxicity at 72 h of 37%.
Regarding `Nc1nc(Nc2ccc3c(c2)CC[C@@H](N2CCCC2)CC3)nn1-c1cc2c(nn1)-c1ccccc1CCC2` [Bemcentinib], the EC50 in data set [1] (setting [3]) is 3.55 µM. Further, the Emax in data set [1] (setting [4]) came to 69.6%. In data set [2], this compound came in with a CC50 at 72 h of 11.2 µM and a cytotoxicity at 72 h of 115%.
On to `Cc1ccc(NC(=O)c2ccc(CN3CCN(C)CC3)cc2)cc1Nc1nccc(-c2cccnc2)n1` [Imatinib, reference compound], for which the Emax in data set [1] (setting [5]) was found to be 119%. In data set [2], this compound gave a cytotoxicity below 30%.
As for `O=C(CCCN1CCC2(CC1)C(=O)NCN2c1ccccc1)c1ccc(F)cc1` [Spiperone], the concentration for a half-maximal effect (EC50) in data set [1] (setting [3]) turned out to be 4.47 µM. Also, the Emax in data set [1] (setting [4]) stood at 61.2%. In data set [2], this compound had a CC50 at 72 h of 3.55 µM and a cytotoxicity at 72 h of 30%.
As for `CNCc1ccc(-c2cc(-c3nc(-c4ccc(S(=O)(=O)C(C)C)cc4)cnc3N)on2)cc1` [Berzosertib, reference compound], in data set [1] (Figure 3), the “Shape of concentration-response in the CPE assay” value is “bell-shaped concentration-responses due to cytotoxicity”. The concentration for a half-maximal effect (EC50) in data set [1] (Severe acute respiratory syndrome coronavirus 2, Vero C1008, 72 h, read-out: CPE EC50) came to 0.71 µM. In addition, the Emax in data set [1] (setting [5]) is 87.9%. In addition, in data set [2], the CC50 at 72 h came to 11.2 µM.
On to `CCn1c(-c2nonc2N)nc2cnc(Oc3cccc(NC(=O)c4ccc(OCCN5CCOCC5)cc4)c3)cc21` [GSK-269962A], for which the concentration giving a half-maximal response (EC50) in data set [1] (setting [3]) came to 7.94 µM. Also, in data set [1] (setting [4]), the Emax was 41.8%. In data set [2], the CC50 turned out to be 2 µM and the cytotoxicity was found to be 56.8%.
In the same order, the values of `CCCCCOc1ccc(-c2ccc(-c3ccc(C(=O)N[C@H]4C[C@@H](O)[C@@H](O)NC(=O)[C@@H]5[C@@H](O)[C@@H](C)CN5C(=O)[C@H]([C@@H](C)O)NC(=O)[C@H]([C@H](O)[C@@H](O)c5ccc(O)cc5)NC(=O)[C@@H]5C[C@@H](O)CN5C(=O)[C@H]([C@@H](C)O)NC4=O)cc3)cc2)cc1` [Anidulafungin] ({pTerphenylCO(4''-OnC5H11)}-[Orn(4R-OH,5R-OH)]T[Hyp][hTyr(3S-OH,4S-OH)]T[Pro(3S-OH,4S-Me)]; lactam 1-C) are 6.95 µM, 68.4%, 8.75 µM and 33.7%.
In the same order, the values of `COc1c(C)cnc(Cn2cnc3c(Cl)nc(N)nc32)c1C` [CNF-2024] are 2.24 µM, 51.3%, 0.35 µM and 21.1%.
In the same order, the values of `CN1CCCN(C(c2ccccc2)c2ccc(Cl)cc2)CC1` (stereo not drawn) [Homochlorcyclizine] are 10 µM, 84.3%, 12.6 µM and 34.2%.
As to `O=C(/C=C/c1ccccc1)NC(NC(=S)Nc1cccc2cccnc12)C(Cl)(Cl)Cl` (stereo not drawn) [Salubrinal], the EC50 in data set [1] (setting [3]) came to 10 µM. In addition, the Emax in data set [1] (setting [4]) is 38.3%. In data set [2], this compound gave a CC50 of 5.01 µM and a cytotoxicity of 15.9%.
For `COc1ccc(-c2csc(NC(=O)[C@H]3CCCCN3S(=O)(=O)c3ccc(C)cc3)n2)cc1` [ML277], in data set [1] (setting [3]), the EC50 came to 10 µM. The Emax in data set [1] (setting [4]) came to 45.4%. Moreover, the cytotoxicity in data set [2] was 0%.

What is called EC50 is the midpoint of the concentration-response curve.
